Experimental data taken from ChEMBL document CHEMBL4715853 (J Med Chem, 2020).

System: Human coronavirus 229E
Assay: Antiviral activity against HCoV-229E harboring GFP infected in human Huh-7 cells treated 1 hr prior to viral infection by fluorometric analysis
Format: functional, organism-based

In the case of CCN(CC)CCCC(C)Nc1ccnc2cc(Cl)ccc12 (stereo unspecified) [CHLOROQUINE], the EC50 is reported as 3.3 µM.
